Source: ChEMBL document CHEMBL5291721, “A preclinical secondary pharmacology resource illuminates target-adverse drug reaction associations of marketed drugs” (Nat Commun, 2023)

Key:
[1] = target: Sodium-dependent dopamine transporter (Homo sapiens, UniProt Q01959)
[2] = target: T1, Alpha-2C adrenergic receptor (Homo sapiens, UniProt P18825); format: functional
T1 sequence (P18825 whole entry): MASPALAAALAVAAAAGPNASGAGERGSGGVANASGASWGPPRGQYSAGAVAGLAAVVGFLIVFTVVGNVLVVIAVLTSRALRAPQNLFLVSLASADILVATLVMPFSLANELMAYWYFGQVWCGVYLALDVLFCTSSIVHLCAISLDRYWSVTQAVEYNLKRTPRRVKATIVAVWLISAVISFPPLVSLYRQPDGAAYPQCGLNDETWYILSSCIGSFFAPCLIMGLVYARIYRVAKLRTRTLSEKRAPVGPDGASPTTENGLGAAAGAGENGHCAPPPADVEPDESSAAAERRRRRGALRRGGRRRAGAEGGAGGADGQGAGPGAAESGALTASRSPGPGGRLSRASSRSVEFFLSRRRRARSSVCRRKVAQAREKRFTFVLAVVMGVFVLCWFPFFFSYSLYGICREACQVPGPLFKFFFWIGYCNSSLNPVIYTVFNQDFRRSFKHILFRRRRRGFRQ

[3] = target: Neuronal acetylcholine receptor subunit alpha-4 (Homo sapiens, UniProt P43681)
[4] = target: Muscarinic acetylcholine receptor M3 (Homo sapiens, UniProt P20309)
Histamine H2 receptor = Histamine H2 receptor (Homo sapiens, UniProt P25021); format: functional, cell-based
D(3) dopamine receptor = D(3) dopamine receptor (Homo sapiens, UniProt P35462)
Motilin receptor = Motilin receptor (Homo sapiens, UniProt O43193)
[5] = target: Beta-2 adrenergic receptor (Homo sapiens, UniProt P07550)
[6] = target: T2, Cholecystokinin receptor type A (Homo sapiens, UniProt P32238)
T2 sequence (P32238 whole entry): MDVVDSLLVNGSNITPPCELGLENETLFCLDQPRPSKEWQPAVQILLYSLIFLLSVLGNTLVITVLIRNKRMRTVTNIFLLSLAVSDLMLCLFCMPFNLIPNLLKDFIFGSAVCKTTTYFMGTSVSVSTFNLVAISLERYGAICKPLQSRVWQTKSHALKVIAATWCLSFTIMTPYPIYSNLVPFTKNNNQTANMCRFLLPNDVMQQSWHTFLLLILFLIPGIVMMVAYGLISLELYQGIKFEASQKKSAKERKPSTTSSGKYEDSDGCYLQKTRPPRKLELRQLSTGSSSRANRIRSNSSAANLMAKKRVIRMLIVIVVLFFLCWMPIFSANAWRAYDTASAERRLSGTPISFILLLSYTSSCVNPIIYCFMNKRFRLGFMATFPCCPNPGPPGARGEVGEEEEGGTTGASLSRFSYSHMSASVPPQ

Vasopressin V2 receptor = Vasopressin V2 receptor (Homo sapiens, UniProt P30518)
[7] = target: 5-hydroxytryptamine receptor 2A (Homo sapiens, UniProt P28223); format: functional, cell-based
[8] = target: T3, Muscarinic acetylcholine receptor M2 (Homo sapiens, UniProt P08172); format: functional, cell-based
T3 sequence (P08172 whole entry): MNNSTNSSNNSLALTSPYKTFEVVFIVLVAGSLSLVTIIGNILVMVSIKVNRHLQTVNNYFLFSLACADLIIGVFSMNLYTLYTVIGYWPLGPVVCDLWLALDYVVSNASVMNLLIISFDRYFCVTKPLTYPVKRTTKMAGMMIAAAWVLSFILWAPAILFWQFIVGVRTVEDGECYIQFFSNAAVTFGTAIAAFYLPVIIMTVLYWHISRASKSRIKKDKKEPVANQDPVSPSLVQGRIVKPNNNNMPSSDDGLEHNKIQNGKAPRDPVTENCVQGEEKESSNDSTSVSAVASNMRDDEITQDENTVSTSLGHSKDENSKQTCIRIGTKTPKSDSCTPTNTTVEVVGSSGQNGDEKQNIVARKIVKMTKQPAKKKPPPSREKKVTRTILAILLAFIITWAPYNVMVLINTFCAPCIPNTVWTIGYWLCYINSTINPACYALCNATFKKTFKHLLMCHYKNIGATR

B2 bradykinin receptor = target: T4, B2 bradykinin receptor (Homo sapiens, UniProt P30411)
T4 sequence (P30411 whole entry): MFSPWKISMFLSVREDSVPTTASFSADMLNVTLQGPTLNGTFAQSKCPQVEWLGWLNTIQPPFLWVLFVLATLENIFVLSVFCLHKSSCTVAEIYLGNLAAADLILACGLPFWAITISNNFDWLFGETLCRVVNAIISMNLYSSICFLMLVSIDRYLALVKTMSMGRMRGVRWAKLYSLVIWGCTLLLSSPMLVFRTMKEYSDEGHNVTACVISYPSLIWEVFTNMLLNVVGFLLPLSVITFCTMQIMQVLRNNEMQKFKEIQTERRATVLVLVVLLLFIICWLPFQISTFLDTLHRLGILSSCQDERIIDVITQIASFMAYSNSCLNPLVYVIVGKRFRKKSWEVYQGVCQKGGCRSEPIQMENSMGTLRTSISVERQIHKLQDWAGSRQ

Endothelin-1 receptor = target: T5, Endothelin-1 receptor (Homo sapiens, UniProt P25101)
T5 sequence (P25101 whole entry): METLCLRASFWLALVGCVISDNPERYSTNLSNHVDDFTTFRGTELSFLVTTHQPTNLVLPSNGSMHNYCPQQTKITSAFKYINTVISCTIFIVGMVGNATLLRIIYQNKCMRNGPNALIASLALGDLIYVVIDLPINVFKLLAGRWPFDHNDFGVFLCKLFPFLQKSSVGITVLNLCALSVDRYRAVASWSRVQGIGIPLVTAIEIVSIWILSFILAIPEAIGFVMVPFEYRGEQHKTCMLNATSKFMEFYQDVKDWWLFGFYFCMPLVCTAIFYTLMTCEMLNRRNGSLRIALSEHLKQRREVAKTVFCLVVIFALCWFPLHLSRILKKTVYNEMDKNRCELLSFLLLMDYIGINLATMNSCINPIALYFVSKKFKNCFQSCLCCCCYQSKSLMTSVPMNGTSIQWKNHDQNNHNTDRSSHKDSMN
Note: assay procedure not described here.

5-hydroxytryptamine receptor 2A, sequence (P28223 whole entry): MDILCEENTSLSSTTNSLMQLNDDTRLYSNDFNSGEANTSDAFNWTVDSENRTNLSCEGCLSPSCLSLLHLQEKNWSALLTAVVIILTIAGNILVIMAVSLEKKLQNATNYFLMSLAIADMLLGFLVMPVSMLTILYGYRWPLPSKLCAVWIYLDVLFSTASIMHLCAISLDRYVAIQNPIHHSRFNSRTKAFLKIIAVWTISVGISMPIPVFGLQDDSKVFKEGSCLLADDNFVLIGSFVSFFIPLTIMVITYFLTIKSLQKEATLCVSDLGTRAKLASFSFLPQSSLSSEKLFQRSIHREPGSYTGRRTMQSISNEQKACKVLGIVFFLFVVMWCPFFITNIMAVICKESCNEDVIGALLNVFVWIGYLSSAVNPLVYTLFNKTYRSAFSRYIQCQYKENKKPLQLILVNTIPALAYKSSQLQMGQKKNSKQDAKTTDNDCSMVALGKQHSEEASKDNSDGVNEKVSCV
D(3) dopamine receptor, sequence (P35462 whole entry): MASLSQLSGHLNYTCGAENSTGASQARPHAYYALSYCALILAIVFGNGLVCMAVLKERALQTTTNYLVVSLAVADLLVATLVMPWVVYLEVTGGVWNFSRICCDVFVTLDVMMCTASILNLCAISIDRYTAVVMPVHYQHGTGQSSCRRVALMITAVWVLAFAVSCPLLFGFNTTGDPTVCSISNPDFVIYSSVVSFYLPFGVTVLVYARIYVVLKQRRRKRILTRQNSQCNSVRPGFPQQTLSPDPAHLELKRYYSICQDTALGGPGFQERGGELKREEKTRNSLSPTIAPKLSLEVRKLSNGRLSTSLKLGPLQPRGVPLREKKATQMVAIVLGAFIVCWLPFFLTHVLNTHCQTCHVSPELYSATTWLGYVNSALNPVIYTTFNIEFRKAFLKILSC
Beta-2 adrenergic receptor, sequence (P07550 whole entry): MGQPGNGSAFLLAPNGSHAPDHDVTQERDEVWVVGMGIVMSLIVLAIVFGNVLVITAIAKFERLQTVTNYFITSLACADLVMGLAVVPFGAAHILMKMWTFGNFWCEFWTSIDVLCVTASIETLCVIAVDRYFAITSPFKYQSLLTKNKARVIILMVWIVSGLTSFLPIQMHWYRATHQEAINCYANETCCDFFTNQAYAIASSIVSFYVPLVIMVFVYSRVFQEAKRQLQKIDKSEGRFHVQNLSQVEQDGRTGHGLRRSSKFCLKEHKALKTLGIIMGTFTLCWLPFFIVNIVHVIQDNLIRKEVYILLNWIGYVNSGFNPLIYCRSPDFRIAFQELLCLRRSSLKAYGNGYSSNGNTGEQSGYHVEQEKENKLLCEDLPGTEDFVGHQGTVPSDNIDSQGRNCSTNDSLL
Histamine H2 receptor, sequence (P25021 whole entry): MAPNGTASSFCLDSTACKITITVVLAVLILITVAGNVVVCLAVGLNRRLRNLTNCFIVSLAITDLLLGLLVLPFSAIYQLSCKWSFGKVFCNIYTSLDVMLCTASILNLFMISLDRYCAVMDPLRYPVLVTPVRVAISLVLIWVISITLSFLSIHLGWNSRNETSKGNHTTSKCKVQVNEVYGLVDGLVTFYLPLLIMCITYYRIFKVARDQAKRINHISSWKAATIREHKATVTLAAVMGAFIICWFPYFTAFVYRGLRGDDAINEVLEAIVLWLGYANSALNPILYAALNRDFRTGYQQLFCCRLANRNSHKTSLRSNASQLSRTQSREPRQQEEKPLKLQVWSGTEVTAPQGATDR
Motilin receptor, sequence (O43193 whole entry): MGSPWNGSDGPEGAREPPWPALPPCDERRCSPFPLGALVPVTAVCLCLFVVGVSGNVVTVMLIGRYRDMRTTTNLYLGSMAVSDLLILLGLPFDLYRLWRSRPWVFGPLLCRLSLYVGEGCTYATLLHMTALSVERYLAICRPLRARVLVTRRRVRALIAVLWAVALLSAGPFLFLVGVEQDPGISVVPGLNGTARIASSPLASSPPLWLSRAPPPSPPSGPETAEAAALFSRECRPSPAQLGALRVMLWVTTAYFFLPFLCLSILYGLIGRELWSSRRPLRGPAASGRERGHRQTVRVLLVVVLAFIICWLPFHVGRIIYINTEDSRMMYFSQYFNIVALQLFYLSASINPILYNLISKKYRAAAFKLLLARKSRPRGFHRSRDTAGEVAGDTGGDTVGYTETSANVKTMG
Neuronal acetylcholine receptor subunit alpha-4, sequence (P43681 whole entry): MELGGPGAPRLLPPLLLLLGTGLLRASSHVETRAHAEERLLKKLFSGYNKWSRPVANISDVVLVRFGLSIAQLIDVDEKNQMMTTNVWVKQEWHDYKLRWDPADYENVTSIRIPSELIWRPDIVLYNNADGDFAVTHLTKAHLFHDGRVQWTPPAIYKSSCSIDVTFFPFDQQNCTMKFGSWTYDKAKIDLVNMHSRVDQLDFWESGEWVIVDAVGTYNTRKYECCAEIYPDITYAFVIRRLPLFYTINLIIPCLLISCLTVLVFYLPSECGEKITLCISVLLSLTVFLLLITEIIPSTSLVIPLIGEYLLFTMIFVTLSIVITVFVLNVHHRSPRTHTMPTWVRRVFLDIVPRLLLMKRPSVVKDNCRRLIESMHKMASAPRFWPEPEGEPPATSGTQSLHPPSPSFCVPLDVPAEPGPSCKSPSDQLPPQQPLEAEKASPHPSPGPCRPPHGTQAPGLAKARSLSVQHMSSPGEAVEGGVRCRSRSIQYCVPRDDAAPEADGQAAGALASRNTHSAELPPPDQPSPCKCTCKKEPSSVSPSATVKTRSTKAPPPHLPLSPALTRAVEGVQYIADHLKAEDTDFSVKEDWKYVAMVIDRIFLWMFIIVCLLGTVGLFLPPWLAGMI
Sodium-dependent dopamine transporter, sequence (Q01959 whole entry): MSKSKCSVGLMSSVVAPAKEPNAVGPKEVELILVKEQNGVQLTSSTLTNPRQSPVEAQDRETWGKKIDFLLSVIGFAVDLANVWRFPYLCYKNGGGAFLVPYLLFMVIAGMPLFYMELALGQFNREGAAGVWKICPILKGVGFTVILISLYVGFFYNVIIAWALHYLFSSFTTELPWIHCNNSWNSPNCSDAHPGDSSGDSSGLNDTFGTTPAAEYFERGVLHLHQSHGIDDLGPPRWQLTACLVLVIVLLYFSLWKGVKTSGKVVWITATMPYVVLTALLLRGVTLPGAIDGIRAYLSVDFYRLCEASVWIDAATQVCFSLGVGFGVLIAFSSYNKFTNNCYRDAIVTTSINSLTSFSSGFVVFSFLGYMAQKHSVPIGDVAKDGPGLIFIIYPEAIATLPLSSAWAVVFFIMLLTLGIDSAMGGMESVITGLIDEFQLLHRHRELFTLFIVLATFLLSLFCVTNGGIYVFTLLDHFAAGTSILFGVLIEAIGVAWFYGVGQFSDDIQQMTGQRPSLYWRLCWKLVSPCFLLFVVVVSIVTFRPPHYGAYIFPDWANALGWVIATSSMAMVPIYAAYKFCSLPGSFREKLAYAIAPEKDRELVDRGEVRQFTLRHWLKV
Muscarinic acetylcholine receptor M3, sequence (P20309 whole entry): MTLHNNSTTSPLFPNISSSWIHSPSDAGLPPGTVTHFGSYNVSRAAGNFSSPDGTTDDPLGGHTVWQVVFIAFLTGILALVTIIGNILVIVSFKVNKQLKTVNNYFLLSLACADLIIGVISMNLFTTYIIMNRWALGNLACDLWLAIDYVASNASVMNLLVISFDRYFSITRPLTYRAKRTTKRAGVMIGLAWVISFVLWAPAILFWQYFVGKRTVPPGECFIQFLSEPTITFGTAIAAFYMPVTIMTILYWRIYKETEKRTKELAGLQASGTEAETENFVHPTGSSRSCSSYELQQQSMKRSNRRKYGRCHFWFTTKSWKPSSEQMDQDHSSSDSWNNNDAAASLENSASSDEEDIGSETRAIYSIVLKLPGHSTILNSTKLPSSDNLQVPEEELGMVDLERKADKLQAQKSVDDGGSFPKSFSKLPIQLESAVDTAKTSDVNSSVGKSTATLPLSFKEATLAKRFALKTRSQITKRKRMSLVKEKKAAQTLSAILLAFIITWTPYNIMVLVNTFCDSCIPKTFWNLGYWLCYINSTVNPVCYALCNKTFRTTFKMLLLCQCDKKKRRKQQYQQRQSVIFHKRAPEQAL
Vasopressin V2 receptor, sequence (P30518 whole entry): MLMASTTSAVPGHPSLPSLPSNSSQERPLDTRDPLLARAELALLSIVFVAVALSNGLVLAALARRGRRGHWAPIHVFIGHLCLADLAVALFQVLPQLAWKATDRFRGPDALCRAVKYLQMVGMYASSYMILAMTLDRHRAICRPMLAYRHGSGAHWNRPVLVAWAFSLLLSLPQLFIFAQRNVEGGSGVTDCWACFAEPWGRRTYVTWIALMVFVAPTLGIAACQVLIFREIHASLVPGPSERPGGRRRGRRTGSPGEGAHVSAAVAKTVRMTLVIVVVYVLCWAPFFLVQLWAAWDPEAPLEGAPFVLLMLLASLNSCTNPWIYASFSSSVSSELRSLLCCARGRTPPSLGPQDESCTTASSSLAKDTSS

SMILES	AC50 [1]	AC50 [2]	AC50 [3]	AC50 [4]	AC50 (Histamine H2 receptor)	AC50 (D(3) dopamine receptor)	AC50 (Motilin receptor)	AC50 [5]	AC50 [6]	AC50 (Vasopressin V2 receptor)	AC50 [7]	AC50 [8]	AC50 (B2 bradykinin receptor)	AC50 (Endothelin-1 receptor)
C=CCC1(C(C)CC)C(=O)NC(=O)NC1=O (stereo not given) [TALBUTAL]	> 10 µM	> 10 µM	> 10 µM	> 30 µM	> 10 µM	> 30 µM	> 10 µM	> 10 µM	> 10 µM	> 10 µM	> 10 µM	> 10 µM	> 10 µM	–
CC(C)Cn1cnc2c(N)nc3ccccc3c21 [IMIQUIMOD]	> 30 µM	> 10 µM	> 10 µM	–	> 10 µM	> 30 µM	> 10 µM	> 10 µM	> 10 µM	> 10 µM	–	> 10 µM	> 10 µM	–
CN1C(=O)OC(C)(C)C1=O [TRIMETHADIONE]	> 10 µM	> 10 µM	> 10 µM	–	> 10 µM	> 30 µM	> 10 µM	> 10 µM	> 10 µM	> 10 µM	–	> 10 µM	> 10 µM	–
CC=CC(=O)N(CC)c1ccccc1C	> 10 µM	> 10 µM	> 10 µM	–	> 10 µM	> 30 µM	> 10 µM	> 10 µM	> 10 µM	> 10 µM	–	> 10 µM	> 10 µM	–
COc1ccc2c3c1O[C@H]1[C@@H](O)C=C[C@H]4[C@@H](C2)N(C)CC[C@@]341 [CODEINE]	> 30 µM	> 10 µM	> 10 µM	> 30 µM	> 10 µM	> 10 µM	> 10 µM	> 10 µM	> 30 µM	> 30 µM	–	> 10 µM	> 30 µM	> 30 µM
CN1CCC(=C2c3ccccc3CCc3sccc32)CC1 [PIZOTYLINE]	13.4 µM	2.1 µM	> 10 µM	> 10 µM	> 10 µM	4.3 µM	> 10 µM	5.8 µM	> 30 µM	> 30 µM	> 30 µM	0.123 µM	> 30 µM	–
N#Cc1ccc([C@H]2CCc3cncn32)c(F)c1 [OSILODROSTAT]	> 10 µM	> 10 µM	> 10 µM	> 10 µM	–	> 10 µM	> 10 µM	> 10 µM	> 10 µM	–	–	–	–	> 10 µM
O=C(O)[C@H](CC(=O)N1C[C@H]2CCCC[C@H]2C1)Cc1ccccc1 [MITIGLINIDE]	> 10 µM	> 10 µM	> 10 µM	> 30 µM	> 10 µM	> 30 µM	> 10 µM	> 10 µM	> 10 µM	> 10 µM	> 10 µM	> 10 µM	> 10 µM	–
CNS(=O)(=O)Cc1ccc2[nH]cc(CCN(C)C)c2c1	> 10 µM	> 30 µM	–	–	> 30 µM	> 30 µM	> 10 µM	> 10 µM	> 30 µM	> 30 µM	–	> 30 µM	> 30 µM	> 30 µM
C#C[C@]1(O)CC[C@H]2[C@@H]3CCC4=Cc5oncc5C[C@]4(C)[C@H]3CC[C@@]21C [DANAZOL]	> 10 µM	> 10 µM	> 10 µM	–	> 10 µM	> 30 µM	> 10 µM	> 10 µM	> 10 µM	> 10 µM	–	> 10 µM	> 10 µM	–
CN1CCN(CC/C=C2/c3ccccc3Sc3ccc(S(=O)(=O)N(C)C)cc32)CC1 [THIOTHIXENE]	6.26 µM	–	–	> 10 µM	> 10 µM	0.0139 µM	> 10 µM	> 10 µM	> 30 µM	20 µM	–	> 10 µM	> 30 µM	> 30 µM
CC[C@@H]1C(=O)OC[C@@H]1Cc1cncn1C [PILOCARPINE]	> 30 µM	> 10 µM	> 10 µM	–	> 10 µM	> 30 µM	> 10 µM	> 10 µM	> 30 µM	> 30 µM	> 30 µM	–	> 30 µM	–
CNC(C)CCC=C(C)C (stereo not given) [ISOMETHEPTENE]	> 30 µM	–	> 30 µM	–	–	–	> 30 µM	> 30 µM	> 30 µM	> 30 µM	–	–	> 30 µM	> 30 µM
CC(C[N+](C)(C)C)OC(N)=O (stereo not given) [BETHANECHOL]	> 10 µM	> 10 µM	> 10 µM	> 30 µM	> 10 µM	> 30 µM	> 10 µM	> 10 µM	> 10 µM	> 10 µM	> 10 µM	–	> 10 µM	–
NCC[C@H](O)C(=O)N[C@@H]1C[C@H](N)[C@@H](O[C@H]2O[C@H](CN)[C@@H](O)[C@H](O)[C@H]2O)[C@H](O)[C@H]1O[C@H]1O[C@H](CO)[C@@H](O)[C@H](N)[C@H]1O [AMIKACIN]	> 10 µM	> 10 µM	> 10 µM	–	> 10 µM	> 30 µM	> 10 µM	> 10 µM	> 10 µM	> 10 µM	–	> 10 µM	> 10 µM	–
CC(C)(C)c1cc(C(C)(C)C)c(NC(=O)c2c[nH]c3ccccc3c2=O)cc1O [IVACAFTOR]	11.2 µM	> 10 µM	> 10 µM	> 30 µM	> 10 µM	> 30 µM	> 10 µM	> 10 µM	> 30 µM	> 30 µM	–	–	> 30 µM	–
